One assay has as its target CREB-binding protein (Homo sapiens, UniProt Q92793).
Assay [1] concerns the target Sphingosine 1-phosphate receptor 2 (Homo sapiens, UniProt O95136). The assay is classed as functional.
For assay [2], the target named is Sphingosine 1-phosphate receptor 2 (Rattus norvegicus, UniProt P47752). Type of assay: functional.
Sphingosine 1-phosphate receptor 2 (Rattus norvegicus, UniProt P47752), sequence (P47752 whole entry): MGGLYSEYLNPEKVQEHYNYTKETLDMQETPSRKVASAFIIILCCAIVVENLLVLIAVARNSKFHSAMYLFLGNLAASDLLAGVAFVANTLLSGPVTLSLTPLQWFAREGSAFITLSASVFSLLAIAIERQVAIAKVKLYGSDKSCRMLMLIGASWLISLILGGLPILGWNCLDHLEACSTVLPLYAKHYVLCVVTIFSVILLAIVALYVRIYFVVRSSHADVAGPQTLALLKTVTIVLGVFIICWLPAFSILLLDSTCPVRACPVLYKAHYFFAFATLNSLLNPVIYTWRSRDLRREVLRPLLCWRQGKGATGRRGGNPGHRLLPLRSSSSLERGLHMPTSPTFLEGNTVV

CREB-binding protein, sequence (Q92793 whole entry): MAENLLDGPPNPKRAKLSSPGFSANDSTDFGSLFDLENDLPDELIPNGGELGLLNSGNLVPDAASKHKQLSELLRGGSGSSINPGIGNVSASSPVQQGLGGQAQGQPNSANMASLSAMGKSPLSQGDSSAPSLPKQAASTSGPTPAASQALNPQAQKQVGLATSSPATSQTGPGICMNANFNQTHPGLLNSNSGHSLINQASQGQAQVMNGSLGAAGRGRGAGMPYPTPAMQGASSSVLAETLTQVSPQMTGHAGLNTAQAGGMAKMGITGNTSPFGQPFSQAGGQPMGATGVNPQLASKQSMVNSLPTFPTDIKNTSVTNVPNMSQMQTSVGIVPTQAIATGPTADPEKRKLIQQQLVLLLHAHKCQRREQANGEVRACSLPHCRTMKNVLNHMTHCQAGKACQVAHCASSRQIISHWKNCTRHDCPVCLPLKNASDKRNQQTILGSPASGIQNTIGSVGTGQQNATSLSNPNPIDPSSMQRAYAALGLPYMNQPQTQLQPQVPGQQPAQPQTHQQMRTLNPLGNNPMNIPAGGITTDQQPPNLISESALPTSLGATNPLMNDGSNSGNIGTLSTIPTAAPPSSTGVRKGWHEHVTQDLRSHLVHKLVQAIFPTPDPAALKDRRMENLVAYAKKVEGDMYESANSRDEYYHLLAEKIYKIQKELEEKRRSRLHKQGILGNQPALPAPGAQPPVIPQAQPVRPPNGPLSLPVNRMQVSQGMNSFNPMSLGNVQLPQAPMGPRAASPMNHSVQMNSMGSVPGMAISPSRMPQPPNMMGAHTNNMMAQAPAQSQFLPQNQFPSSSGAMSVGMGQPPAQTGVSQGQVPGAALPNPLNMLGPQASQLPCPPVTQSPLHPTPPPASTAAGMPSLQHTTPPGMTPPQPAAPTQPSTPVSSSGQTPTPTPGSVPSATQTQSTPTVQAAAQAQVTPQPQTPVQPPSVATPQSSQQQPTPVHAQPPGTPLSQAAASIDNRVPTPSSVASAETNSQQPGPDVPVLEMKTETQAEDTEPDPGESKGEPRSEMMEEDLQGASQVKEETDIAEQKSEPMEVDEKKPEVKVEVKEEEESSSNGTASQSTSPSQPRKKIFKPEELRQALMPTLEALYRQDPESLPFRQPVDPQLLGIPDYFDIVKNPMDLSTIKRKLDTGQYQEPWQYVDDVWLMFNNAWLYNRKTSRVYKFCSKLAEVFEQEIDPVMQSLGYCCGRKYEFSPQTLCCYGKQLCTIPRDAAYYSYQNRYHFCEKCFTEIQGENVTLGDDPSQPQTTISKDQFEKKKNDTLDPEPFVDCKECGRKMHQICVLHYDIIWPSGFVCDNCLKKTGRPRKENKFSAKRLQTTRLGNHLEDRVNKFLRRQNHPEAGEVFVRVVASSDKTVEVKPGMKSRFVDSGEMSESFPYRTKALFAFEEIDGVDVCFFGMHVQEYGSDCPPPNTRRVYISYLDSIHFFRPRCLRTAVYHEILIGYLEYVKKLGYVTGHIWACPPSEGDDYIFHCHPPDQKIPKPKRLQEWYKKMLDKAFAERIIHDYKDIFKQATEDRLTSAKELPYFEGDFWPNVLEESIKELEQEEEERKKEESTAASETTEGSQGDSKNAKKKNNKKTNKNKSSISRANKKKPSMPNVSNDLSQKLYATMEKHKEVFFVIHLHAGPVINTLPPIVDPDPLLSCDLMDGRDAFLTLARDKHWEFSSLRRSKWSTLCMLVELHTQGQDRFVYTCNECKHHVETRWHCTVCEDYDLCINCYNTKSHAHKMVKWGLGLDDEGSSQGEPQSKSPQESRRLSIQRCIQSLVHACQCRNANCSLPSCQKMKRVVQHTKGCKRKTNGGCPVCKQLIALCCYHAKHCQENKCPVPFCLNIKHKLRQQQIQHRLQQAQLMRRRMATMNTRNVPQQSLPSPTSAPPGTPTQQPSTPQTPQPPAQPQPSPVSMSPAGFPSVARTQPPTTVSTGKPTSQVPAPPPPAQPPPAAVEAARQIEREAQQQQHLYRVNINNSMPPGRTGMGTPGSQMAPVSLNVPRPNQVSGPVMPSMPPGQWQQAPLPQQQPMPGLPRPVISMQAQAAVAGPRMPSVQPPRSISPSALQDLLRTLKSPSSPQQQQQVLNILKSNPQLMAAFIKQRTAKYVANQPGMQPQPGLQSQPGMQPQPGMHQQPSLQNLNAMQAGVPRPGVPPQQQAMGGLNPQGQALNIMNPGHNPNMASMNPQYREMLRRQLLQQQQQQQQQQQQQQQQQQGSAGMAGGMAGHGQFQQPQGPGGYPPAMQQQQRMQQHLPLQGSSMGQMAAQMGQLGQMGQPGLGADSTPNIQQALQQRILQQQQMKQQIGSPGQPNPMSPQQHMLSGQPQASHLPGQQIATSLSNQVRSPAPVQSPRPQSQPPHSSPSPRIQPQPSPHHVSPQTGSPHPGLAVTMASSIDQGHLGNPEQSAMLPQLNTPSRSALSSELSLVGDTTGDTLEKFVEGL
Sphingosine 1-phosphate receptor 2 (Homo sapiens, UniProt O95136), sequence (O95136 whole entry): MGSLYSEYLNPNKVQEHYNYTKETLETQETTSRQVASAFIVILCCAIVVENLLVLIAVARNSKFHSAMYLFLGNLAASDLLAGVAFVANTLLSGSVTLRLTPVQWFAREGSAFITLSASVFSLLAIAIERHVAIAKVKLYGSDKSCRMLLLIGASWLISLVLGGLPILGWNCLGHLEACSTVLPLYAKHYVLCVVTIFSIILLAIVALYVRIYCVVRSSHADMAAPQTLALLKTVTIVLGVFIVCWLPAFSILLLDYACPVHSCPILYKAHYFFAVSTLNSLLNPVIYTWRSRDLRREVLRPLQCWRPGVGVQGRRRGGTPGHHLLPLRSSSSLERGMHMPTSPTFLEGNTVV

Compound `O=C1[C@H](Cc2ccc(O)cc2)N2C(=O)CCN(C(=O)NCc3ccccc3)[C@H]2CN1Cc1cccc2ccccc12` had a half-maximal inhibitory concentration (IC50) at CREB-binding protein of 3000 nM.

As for `Cc1nn(C)c2nc(NNC(=O)Nc3cc(Cl)nc(Cl)c3)cc(C(C)C)c12`, the IC50 in assay [1] and in assay [2] was 20 nM in each case.

These data come from ChEMBL document CHEMBL4270539, “Fibrogenic Disorders in Human Diseases: From Inflammation to Organ Dysfunction” (J Med Chem, 2018).
